# Target: mouse PKCα (Mus musculus, UniProt P20444)
# Experiment: PKC binding assay
# Settings: not given
row,Compound,Ki [nM]
1,"C=CCCCCCOc1ccc2c(c1)N(C)[C@@H](C(C)C)C(=O)N[C@H](CO)C2 [compound 3, 9-Hept-6-enyloxy-5-hydroxymethyl-2-isopropyl-1-methyl-1,4,5,6-tetrahydro-2H-benzo[e][1,4] diazocin-3-one]",5.4 ± 0.1
2,"CC(=O)SCCCOc1ccc2c(c1)N(C)[C@@H](C(C)C)C(=O)N[C@H](CO)C2 [compound 9, Thioacetic acid S-[3-(5-hydroxymethyl-2-isopropyl-1-methyl-3-oxo-1,2,3,4,5,6-hexahydro-benzo[e] [1,4]diazocin-9-yloxy)-propyl] ester]",21 ± 2.8
3,"CC(=O)SCCCCOc1ccc2c(c1)N(C)[C@@H](C(C)C)C(=O)N[C@H](CO)C2 [compound 10, Thioacetic acid S-[4-(5-hydroxymethyl-2-isopropyl-1-methyl-3-oxo-1,2,3,4,5,6-hexahydro-benzo [e][1,4]diazocin-9-yloxy)-butyl] ester]",15.8 ± 0.8
4,"CC(=O)SCCCCCOc1ccc2c(c1)N(C)[C@@H](C(C)C)C(=O)N[C@H](CO)C2 [compound 11, Thioacetic acid S-[5-(5-hydroxymethyl-2-isopropyl-1-methyl-3-oxo-1,2,3,4,5,6-hexahydro-benzo[e] [1,4]diazocin-9-yloxy)-pentyl] ester]",6.6 ± 0.2
5,"CC(=O)SCCCCCCCOc1ccc2c(c1)N(C)[C@@H](C(C)C)C(=O)N[C@H](CO)C2 [compound 13, Thioacetic acid S-[7-(5-hydroxymethyl-2-isopropyl-1-methyl-3-oxo-1,2,3,4,5,6-hexahydrobenzo[e] [1,4]diazocin-9-yloxy)-heptyl] ester]",4.5 ± 0.4
6,"CC(=O)SCCCCCCCCOc1ccc2c(c1)N(C)[C@@H](C(C)C)C(=O)N[C@H](CO)C2 [compound 14, Thioacetic acid S-[8-(5-hydroxymethyl-2-isopropyl-1-methyl-3-oxo-1,2,3,4,5,6-hexahydro-benzo[e] [1,4]diazocin-9-yloxy)-octyl] ester]",2.8 ± 0.5

# Same assay, conditions: read-out: Ki [nM] ± SEM
row,Compound,Ki [nM]
1,"CC(C)[C@H]1C(=O)N[C@H](CO)Cc2ccc(O)cc2N1C [compound 2, 9-Hydroxy-5-hydroxymethyl-2-isopropyl-1-methyl-(2S,5S)-1,4,5,6-tetrahydro-2H-benzo[e][1,4] diazocin-3-one]",4840 ± 320
